What was measured:
Assay type in all cases: functional
Cavia porcellus [1] = species: Cavia porcellus; test: Compound was evaluated for agonist activity in Guinea pig ileum (GPI) partial agonist (potency ratio is based on IC10 value for compound and morphine)
Mus musculus [2] = species: Mus musculus; test: Compound was evaluated for irreversible antagonist activity in Mouse vas deference(MVD) agonist (DADLE) IC50 after antagonist treatment (50 nM) divided by the agonist control IC50
Cavia porcellus [3] = species: Cavia porcellus; test: Compound was evaluated for irreversible antagonist activity in Guinea pig ileum (GPI) agonist (morphine) IC50 after antagonist treatment (20 nM) divided by the agonist control IC50
Mus musculus [4] = species: Mus musculus; test: Compound was evaluated for irreversible antagonist activity in Mouse vas deference(MVD) agonist (morphine) IC50 after antagonist treatment (50 nM) divided by the agonist control IC50
Cavia porcellus [5] = species: Cavia porcellus; test: Compound was evaluated for irreversible antagonist activity in Guinea pig ileum (GPI) agonist (ethylketazocine) IC50 after antagonist treatment (20 nM) divided by the agonist control IC50
Mus musculus [6] = species: Mus musculus; test: Compound was evaluated for agonist activity in Mouse vas deferens (MVD)
Cavia porcellus [7] = species: Cavia porcellus; test: Compound was evaluated for irreversible antagonist activity in Guinea pig ileum (GPI) agonist (morphine) IC50 after antagonist treatment (200 nM) divided by the agonist control IC50 (Tissue was treated with 200 nM compound rather than 20 nM)
Cavia porcellus [8] = species: Cavia porcellus; test: Compound was evaluated for irreversible antagonist activity in Guinea pig ileum (GPI)agonist (ethylketazocine) IC50 after antagonist treatment (200 nM) divided by the agonist control IC50
Cavia porcellus [9] = species: Cavia porcellus; test: Compound was evaluated for agonist activity in Guinea pig ileum (GPI)
Cavia porcellus [10] = species: Cavia porcellus; test: Compound was evaluated for irreversible antagonist activity in Guinea pig ileum (GPI) agonist (morphine) IC50 after antagonist treatment (200 nM) divided by the agonist control IC50

| Compound | Potency ratio (Cavia porcellus [1]) | IC50 ratio (Mus musculus [2]) | IC50 ratio (Cavia porcellus [3]) | IC50 ratio (Mus musculus [4]) | IC50 ratio (Cavia porcellus [5]) | Potency ratio (Mus musculus [6]) | IC50 ratio (Cavia porcellus [7]) | IC50 ratio (Cavia porcellus [8]) | Potency ratio (Cavia porcellus [9]) | IC50 ratio (Cavia porcellus [10]) |
| --- | --- | --- | --- | --- | --- | --- | --- | --- | --- | --- |
| Oc1ccc2c3c1O[C@H]1[C@H](N=C=S)CCC4C(C2)N(CC2CC2)CCC341 (some centres undefined) | 3.1 | 1.96 | 4.8 | 11.5 | 1.58 | 4.5 | 70 | 2.29 | – | – |
| O=C(CI)N[C@@H]1CCC2C3Cc4ccc(O)c5c4C2(CCN3CC2CC2)[C@H]1O5 (some centres undefined) | – | 2.4 | 3.05 | 15.6 | 1.03 | 25.3 | – | – | 6.27 | – |
| COC(=O)/C=C/C(=O)N[C@@H]1CC[C@@]2(O)[C@H]3Cc4ccc(O)c5c4[C@@]2(CCN3CC2CC2)[C@H]1O5 | – | 1.8 | 6 | 3.9 | 1 | 4.4 | – | – | 5 | – |
| CN(CCCl)[C@@H]1CCC2C3Cc4ccc(O)c5c4C2(CCN3CC2CC2)[C@H]1O5 (some centres undefined) | – | 46.77 | 125 | 51 | 6.25 | 380 | – | – | 154 | – |
| COC(=O)/C=C/C(=O)N[C@@H]1CCC2C3Cc4ccc(O)c5c4C2(CCN3CC2CC2)[C@H]1O5 (some centres undefined) | – | 2.29 | 1.58 | 4.12 | 1.33 | 18 | – | 0.5 | 17.62 | 2.77 |
